# Data published in PubChem BioAssay (NCI).
#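 Protocol summary: plate cells (96-well), add compound at 5 concentrations, incubate 48 h, interpolate endpoints linearly. TGI marks complete inhibition of growth.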
# Columns and labels:
# Assay in all cases: NCI-60 cell line screen, 48 h
# 786-0 renal = test system: 786-0 renal
# A498 renal = test system: A498 renal
# A549 NSCLC = test system: A549 NSCLC
# ACHN renal = test system: ACHN renal
# BT-549 breast = test system: BT-549 breast
# CAKI-1 renal = test system: CAKI-1 renal
# CCRF-CEM leukemia = test system: CCRF-CEM leukemia
# COLO 205 colon = test system: COLO 205 colon
# DU-145 prostate = test system: DU-145 prostate
# EKVX NSCLC = test system: EKVX NSCLC
# HCC-2998 colon = test system: HCC-2998 colon
# HCT-116 colon = test system: HCT-116 colon
# HCT-15 colon = test system: HCT-15 colon
# HL-60(TB) leukemia = test system: HL-60(TB) leukemia
# HOP-62 NSCLC = test system: HOP-62 NSCLC
# HOP-92 NSCLC = test system: HOP-92 NSCLC
# HS 578T breast = test system: HS 578T breast
# HT29 colon = test system: HT29 colon
# IGROV1 ovarian = test system: IGROV1 ovarian
# K-562 leukemia = test system: K-562 leukemia
# KM12 colon = test system: KM12 colon
# LOX IMVI melanoma = test system: LOX IMVI melanoma
# M14 melanoma = test system: M14 melanoma
# MALME-3M melanoma = test system: MALME-3M melanoma
# MCF7 breast = test system: MCF7 breast
# MDA-MB-231 breast = test system: MDA-MB-231 breast
# MDA-MB-435 = test system: MDA-MB-435
# MDA-N = test system: MDA-N
# MOLT-4 leukemia = test system: MOLT-4 leukemia
# NCI-H226 lung = test system: NCI-H226 lung
# NCI-H23 lung = test system: NCI-H23 lung
# NCI-H460 lung = test system: NCI-H460 lung
# NCI-H522 lung = test system: NCI-H522 lung
# NCI/ADR-RES ovarian = test system: NCI/ADR-RES ovarian
# OVCAR-3 ovarian = test system: OVCAR-3 ovarian
# OVCAR-4 ovarian = test system: OVCAR-4 ovarian
# OVCAR-5 ovarian = test system: OVCAR-5 ovarian
# OVCAR-8 ovarian = test system: OVCAR-8 ovarian
# PC-3 prostate = test system: PC-3 prostate
# RPMI-8226 leukemia = test system: RPMI-8226 leukemia
# RXF 393 renal = test system: RXF 393 renal
# SF-268 CNS = test system: SF-268 CNS
# SF-295 CNS = test system: SF-295 CNS
# SF-539 CNS = test system: SF-539 CNS
# SK-MEL-2 melanoma = test system: SK-MEL-2 melanoma
# SK-MEL-28 melanoma = test system: SK-MEL-28 melanoma
# SK-MEL-5 melanoma = test system: SK-MEL-5 melanoma
# SK-OV-3 ovarian = test system: SK-OV-3 ovarian
# SN12C renal = test system: SN12C renal
# SNB-19 CNS = test system: SNB-19 CNS
# SNB-75 CNS = test system: SNB-75 CNS
# SR leukemia = test system: SR leukemia
# SW-620 colon = test system: SW-620 colon
# T-47D breast = test system: T-47D breast
# TK-10 renal = test system: TK-10 renal
# U251 CNS = test system: U251 CNS
# UACC-257 melanoma = test system: UACC-257 melanoma
# UACC-62 melanoma = test system: UACC-62 melanoma
# UO-31 renal = test system: UO-31 renal
structure (smiles),measurement,setting,value
CC(=O)NC1=C(OS(=O)(=O)c2ccc(C)cc2)CN(C)C1=O,TGI,786-0 renal,16.5 µM
same,TGI,A498 renal,18 µM
same,TGI,A549 NSCLC,15.3 µM
same,TGI,ACHN renal,12.3 µM
same,TGI,BT-549 breast,12 µM
same,TGI,CAKI-1 renal,14 µM
same,TGI,CCRF-CEM leukemia,4.28 µM
same,TGI,COLO 205 colon,25.3 µM
same,TGI,DU-145 prostate,16.7 µM
same,TGI,EKVX NSCLC,14.2 µM
same,TGI,HCC-2998 colon,11.5 µM
same,TGI,HCT-116 colon,12 µM
same,TGI,HCT-15 colon,13.2 µM
same,TGI,HL-60(TB) leukemia,7.09 µM
same,TGI,HOP-62 NSCLC,11.9 µM
same,TGI,HOP-92 NSCLC,8.49 µM
same,TGI,HS 578T breast,> 42.2 µM
same,TGI,HT29 colon,20 µM
same,TGI,IGROV1 ovarian,12.1 µM
same,TGI,K-562 leukemia,28.3 µM
same,TGI,KM12 colon,14.3 µM
same,TGI,LOX IMVI melanoma,17.5 µM
same,TGI,M14 melanoma,20 µM
same,TGI,MALME-3M melanoma,6.21 µM
same,TGI,MCF7 breast,11.7 µM
same,TGI,MDA-MB-231 breast,23.1 µM
same,TGI,MDA-MB-435,16.7 µM
same,TGI,MDA-N,24.5 µM
same,TGI,MOLT-4 leukemia,17.9 µM
same,TGI,NCI-H226 lung,62.7 µM
same,TGI,NCI-H23 lung,15.3 µM
same,TGI,NCI-H460 lung,7.77 µM
same,TGI,NCI-H522 lung,9.74 µM
same,TGI,NCI/ADR-RES ovarian,44.9 µM
same,TGI,OVCAR-3 ovarian,8.14 µM
same,TGI,OVCAR-4 ovarian,20.9 µM
same,TGI,OVCAR-5 ovarian,32 µM
same,TGI,OVCAR-8 ovarian,20.3 µM
same,TGI,PC-3 prostate,10.1 µM
same,TGI,RPMI-8226 leukemia,5.77 µM
same,TGI,RXF 393 renal,13.3 µM
same,TGI,SF-268 CNS,45 µM
same,TGI,SF-295 CNS,13.9 µM
same,TGI,SF-539 CNS,5.84 µM
same,TGI,SK-MEL-2 melanoma,9.63 µM
same,TGI,SK-MEL-28 melanoma,> 42.7 µM
same,TGI,SK-MEL-5 melanoma,18.4 µM
same,TGI,SK-OV-3 ovarian,21 µM
same,TGI,SN12C renal,16.4 µM
same,TGI,SNB-19 CNS,14.9 µM
same,TGI,SNB-75 CNS,15.1 µM
same,TGI,SR leukemia,> 100 µM
same,TGI,SW-620 colon,> 37.3 µM
same,TGI,T-47D breast,9.35 µM
same,TGI,TK-10 renal,7.97 µM
same,TGI,U251 CNS,8.75 µM
same,TGI,UACC-257 melanoma,11.8 µM
same,TGI,UACC-62 melanoma,21.2 µM
same,TGI,UO-31 renal,14.2 µM
CCC1C(c2cc(OC)c(OC)c(OC)c2)c2cc3c(cc2OC1N1CCCC1)OCO3 (stereo not drawn),TGI,786-0 renal,22.2 µM
same,TGI,A498 renal,14 µM
same,TGI,A549 NSCLC,20.2 µM
same,TGI,ACHN renal,26.6 µM
same,TGI,BT-549 breast,49.4 µM
same,TGI,CAKI-1 renal,9.8 µM
same,TGI,CCRF-CEM leukemia,11.9 µM
same,TGI,COLO 205 colon,12.1 µM
same,TGI,DU-145 prostate,14.6 µM
same,TGI,EKVX NSCLC,59.8 µM
same,TGI,HCC-2998 colon,8.16 µM
same,TGI,HCT-116 colon,11.5 µM
same,TGI,HCT-15 colon,27.2 µM
same,TGI,HL-60(TB) leukemia,> 23.3 µM
same,TGI,HOP-62 NSCLC,15.9 µM
same,TGI,HOP-92 NSCLC,21.3 µM
same,TGI,HS 578T breast,14.1 µM
same,TGI,HT29 colon,10.9 µM
same,TGI,IGROV1 ovarian,17.8 µM
same,TGI,K-562 leukemia,8.62 µM
same,TGI,KM12 colon,22 µM
same,TGI,LOX IMVI melanoma,22 µM
same,TGI,M14 melanoma,26.6 µM
same,TGI,MALME-3M melanoma,40.3 µM
same,TGI,MCF7 breast,13.7 µM
same,TGI,MDA-MB-231 breast,20.5 µM
same,TGI,MDA-MB-435,1.07 µM
same,TGI,MDA-N,0.795 µM
same,TGI,MOLT-4 leukemia,22.8 µM
same,TGI,NCI-H226 lung,8.78 µM
same,TGI,NCI-H23 lung,39 µM
same,TGI,NCI-H460 lung,12.4 µM
same,TGI,NCI-H522 lung,10.1 µM
same,TGI,NCI/ADR-RES ovarian,7.03 µM
same,TGI,OVCAR-3 ovarian,8.53 µM
same,TGI,OVCAR-4 ovarian,> 76 µM
same,TGI,OVCAR-5 ovarian,57.4 µM
same,TGI,OVCAR-8 ovarian,23.9 µM
same,TGI,PC-3 prostate,> 37.6 µM
same,TGI,RPMI-8226 leukemia,26.2 µM
same,TGI,RXF 393 renal,9.31 µM
same,TGI,SF-268 CNS,33 µM
same,TGI,SF-295 CNS,8.25 µM
same,TGI,SF-539 CNS,5.53 µM
same,TGI,SK-MEL-2 melanoma,13 µM
same,TGI,SK-MEL-28 melanoma,60.6 µM
same,TGI,SK-MEL-5 melanoma,12.5 µM
same,TGI,SK-OV-3 ovarian,26.6 µM
same,TGI,SN12C renal,31.8 µM
same,TGI,SNB-19 CNS,24 µM
same,TGI,SNB-75 CNS,31.4 µM
same,TGI,SR leukemia,> 47.6 µM
same,TGI,SW-620 colon,45.4 µM
same,TGI,T-47D breast,41.9 µM
same,TGI,TK-10 renal,40.3 µM
same,TGI,U251 CNS,11.7 µM
same,TGI,UACC-257 melanoma,55.6 µM
same,TGI,UACC-62 melanoma,23.4 µM
same,TGI,UO-31 renal,23.1 µM
COc1c2c(cc3oc(C)cc(=O)c13)OC(=N)C(C(N)=O)C2CC(=O)c1ccc(N)cc1 (stereo not drawn),TGI,786-0 renal,> 100 µM
same,TGI,A498 renal,> 100 µM
same,TGI,A549 NSCLC,> 100 µM
same,TGI,ACHN renal,> 100 µM
same,TGI,BT-549 breast,> 100 µM
same,TGI,CAKI-1 renal,> 100 µM
same,TGI,CCRF-CEM leukemia,> 100 µM
same,TGI,COLO 205 colon,> 100 µM
same,TGI,DU-145 prostate,> 100 µM
same,TGI,EKVX NSCLC,> 100 µM
same,TGI,HCC-2998 colon,> 100 µM
same,TGI,HCT-116 colon,> 100 µM
same,TGI,HCT-15 colon,> 100 µM
same,TGI,HL-60(TB) leukemia,> 100 µM
same,TGI,HOP-92 NSCLC,> 100 µM
same,TGI,HS 578T breast,> 100 µM
same,TGI,IGROV1 ovarian,> 100 µM
same,TGI,K-562 leukemia,> 100 µM
same,TGI,KM12 colon,> 100 µM
same,TGI,LOX IMVI melanoma,> 100 µM
same,TGI,M14 melanoma,> 100 µM
same,TGI,MALME-3M melanoma,> 100 µM
same,TGI,MCF7 breast,> 100 µM
same,TGI,MDA-MB-231 breast,> 100 µM
same,TGI,MDA-MB-435,> 100 µM
same,TGI,MDA-N,> 100 µM
same,TGI,MOLT-4 leukemia,> 100 µM
same,TGI,NCI-H226 lung,> 100 µM
same,TGI,NCI-H460 lung,> 100 µM
same,TGI,NCI-H522 lung,> 100 µM
same,TGI,NCI/ADR-RES ovarian,> 100 µM
same,TGI,OVCAR-3 ovarian,> 100 µM
same,TGI,OVCAR-4 ovarian,> 100 µM
same,TGI,OVCAR-5 ovarian,> 100 µM
same,TGI,OVCAR-8 ovarian,> 100 µM
same,TGI,PC-3 prostate,> 100 µM
same,TGI,RPMI-8226 leukemia,> 100 µM
same,TGI,RXF 393 renal,> 100 µM
same,TGI,SF-268 CNS,> 100 µM
same,TGI,SF-295 CNS,> 100 µM
same,TGI,SF-539 CNS,> 100 µM
same,TGI,SK-MEL-2 melanoma,> 100 µM
same,TGI,SK-MEL-28 melanoma,> 100 µM
same,TGI,SK-MEL-5 melanoma,> 100 µM
same,TGI,SN12C renal,> 100 µM
same,TGI,SNB-19 CNS,> 100 µM
same,TGI,SNB-75 CNS,> 100 µM
same,TGI,SR leukemia,> 100 µM
same,TGI,SW-620 colon,> 100 µM
same,TGI,T-47D breast,> 100 µM
same,TGI,TK-10 renal,> 100 µM
same,TGI,U251 CNS,> 100 µM
same,TGI,UACC-257 melanoma,> 100 µM
same,TGI,UACC-62 melanoma,> 100 µM
same,TGI,UO-31 renal,> 100 µM
